Source: patent US20070265164A1, “Active Substances for Increasing Pathogenic Defense in Plants and Methods for the Detection Thereof” (Bayer Cropscience GmbH, priority 2004, published 2007)

Key:
Format in all cases: in vivo
Parameters in all cases: fold induction: dose or concentration left out as unconfirmed
[1] = tested on: Contig3097_at, Allene oxide synthase; experiment: GEP, barley DNA chip, probe set 1.3; details: Hordeum vulgare, topical, read-out: Expression value, 1.3 Contig3097_at
Protocol: (§1) Barley plants (cv. Baronesse) were grown in compost-filled pots (diameter: 10 cm) for 10 days in a controlled-environment cabinet under defined light, humidity and temperature conditions (white light, 70% atmospheric humidity, 24° C.). At the time of spray application, the seedlings were approximately 15 cm in size. The test substances selected in this example were molecules which differ markedly in their structure and which have a well documented pronounced safener effect, and other molecules which are known from the literature to have an effect on plant stress and pathogen tolerance (Table 1). The substances were prepared as stock solutions in DMSO (dimethyl sulfoxide) at c=10 mg/ml). This was used for preparing dilutions in water supplemented with 0.2% Agrotin (comprises polyvinyl alcohol, silicones, polysaccharides and pH regulators, manufacturer: Bayer CropScience AG, Monheim, Germany), as wetter, to give the application rates shown in the table. The amount of liquid for the spray application was 800 μl per pot, corresponding to 800 l/ha. For each 800 μl of spray mixture, 16 μl of EC premix: diacetone alcohol=1:6 were additionally added as formulation auxiliaries. The substances listed in Table 1 were applied to the leaves by means of a pneumatic spray pistol. Each substance was sprayed as 2 dosages, and all experiments were carried out as replicates (2 pots per substance). Sprayings with blank formulation without active ingredient were carried out as controls. After 6 hours, the leaves were harvested, frozen in liquid nitrogen and stored at −80° C. until further use. The labeled RNA probes for the DNA chip hybridization were prepared as described in the protocols (Expression Analysis, Technical Manual) from Affymetrix (Affymetrix Inc., 3380 Central Expressway, Santa Clara, Calif., USA). First, total RNA was isolated from in each case 500 mg of the harvested leaves. In each case 10 μg of total RNA was used for the first-strand and second-strand cDNA synthesis. The cDNA was amplified with T7 polymerase and simultaneously labeled with biotin-UTP. In each case, 20 μg of this biotinylated cDNA was employed for the hybridization of the barley genome array (Gene Chip Barleyl, order No.: 511012) from Affymetrix. This DNA microarray comprises DNA sequences of 22 840 genes which are composed of a total of 400 000 EST sequences. Thereafter, the DNA microarrays were washed in the Affymetrix Fluidics Station, stained with streptavidin/phycoerythrin (Molecular Probes, P/N S-866) and scanned with the matching Agilent Laser Scanner (Agilent Gene Array Scanner). The fluorescent data obtained were analyzed with the software Microarray Suite 5 from Affymetrix. After the quality had been checked, all DNA chip analyses were stored in a database. To determine the relative expression values for genes (induction factors, repression factors), test and control chips were compared with each other, and the scoring function set by the Affymetrix software was used as the basis. The 2 biological replications of one experiment were compared in each case with 2 control chips (blank formulation), and the 4 expression values obtained for each gene were used for calculating the median. These medians are shown in the results tables as induction factors. Similarity comparisons of expression profiles from different experiments and cluster analyses were carried out using the software GeneMaths 1.5 from Applied Maths (Applied Maths, Keistraat 120, 9830 Sint-Martens-Latem, Belgium).
(§2) Gene groups from specific metabolic pathways and signal transduction chains were put together by key word search in the annotations, of the genes, which were also provided by Affymetrix, and by Blast analyses (homology comparisons) of the DNA target sequences, i.e. of the positive sequence (identified on the basis of a modified expression profile) identified on the DNA chip, using gene sequences from other organisms, preferably plant organisms, with characterized functions. […]

[2] = tested on: Contig 4986_at, Allene oxide cyclase; experiment: GEP, barley DNA chip, probe set 1.5; details: Hordeum vulgare, topical, read-out: Expression value, 1.5 Contig 4986_at
Protocol: as §1, §2

[3] = tested on: Contig15_a_at, GDSL-motif lipase/hydrolase-like protein; experiment: GEP, barley DNA chip, probe set 1.9; details: Hordeum vulgare, topical, read-out: Expression value, 1.9 Contig15_a_at
Protocol: as §1, §2

[4] = tested on: Contig1736_at, Lipoxygenase 1 (EC 1.13.11.12); experiment: GEP, barley DNA chip, probe set 1.10; details: Hordeum vulgare, read-out: Expression value, 1.10 Contig1736_at
Protocol: as §1, §2

[5] = tested on: Contig10030_at, Putative lipase homolog; experiment: GEP, barley DNA chip, probe set 1.13; details: Hordeum vulgare, topical, read-out: Expression value, 1.13 Contig10030_at
Protocol: as §1, §2

[6] = tested on: Contig2330_x_at, 12-oxophytodienoic acid reductase; experiment: GEP, barley DNA chip, probe set 1.19; details: Hordeum vulgare, topical, read-out: Expression value, 1.19 Contig2330_x_at
Protocol: as §1, §2

[7] = tested on: Contig2337_at, 12-oxophytodienoate reductase (OPR1); experiment: GEP, barley DNA chip, probe set 1.20; details: Hordeum vulgare, topical, read-out: Expression value, 1.20 Contig2337_at
Protocol: as §1, §2

[8] = tested on: Contig34_s_at, Putative proteinase inhibitor; experiment: GEP, barley DNA chip, probe set 2.2; details: Hordeum vulgare, topical, read-out: Expression value, 2.2 Contig34_s_at
Protocol: as §1, §2

[9] = tested on: HD07M22r_s_at, Proteinase-Inhibitor (pir S71555, barley); experiment: GEP, barley DNA chip, probe set 2.4; details: Hordeum vulgare, topical, read-out: Expression value, 2.4 HD07M22r_s_at
Protocol: as §1, §2

[10] = tested on: Contig8905_at, Xytanase inhibitor protein; experiment: GEP, barley DNA chip, probe set 3.1; details: Hordeum vulgare, topical, read-out: Expression value, 3.1 Contig8905_at
Protocol: as §1, §2

[11] = tested on: Contig5607_s_at, Pathogen-related protein (PirT06168); experiment: GEP, barley DNA chip, probe set 4.3; details: Hordeum vulgare, topical, read-out: Expression value, 4.3 Contig5607_s_at
Protocol: as §1, §2

[12] = tested on: Contig2990_at, Chitinase (EC 3.2.1.14); experiment: GEP, barley DNA chip, probe set 5.1; details: Hordeum vulgare, topical, read-out: Expression value, 5.1 Contig2990_at
Protocol: as §1, §2

[13] = tested on: Contig5023_at, Class III chitinase; experiment: GEP, barley DNA chip, probe set 5.3; details: Hordeum vulgare, topical, read-out: Expression value, 5.3 Contig5023_at
Protocol: as §1, §2

[14] = barley leaves 6 h after spray application, rates of Table 1 (S7 500), median induction factor vs control

SMILES: CCOC(=O)C1=NOC(c2ccccc2)(c2ccccc2)C1 [S3, Isoxadifen-ethyl]
- fold induction at 150 g/ha ([1]; 6 h): 8.51
- fold induction at 150 g/ha ([2]; 6 h): 3.76
- fold induction at 150 g/ha ([3]; 6 h): 2.97
- fold induction at 150 g/ha ([4]; 6 h): 2.91
- fold induction at 150 g/ha ([5]; 6 h): 2.25
- fold induction at 150 g/ha ([6]; 6 h): 1
- fold induction at 150 g/ha ([7]; 6 h): 1
- fold induction at 150 g/ha ([8]; 6 h): 1
- fold induction at 150 g/ha ([9]; 6 h): 2.71
- fold induction at 150 g/ha ([10]; 6 h): 2.99
- fold induction at 150 g/ha ([11]; 6 h): 13.4
- fold induction at 150 g/ha ([12]; 6 h): 2.77
- fold induction at 150 g/ha ([13]; 6 h): 1

SMILES: NC(=O)c1ccc(C(F)(F)F)nc1O [S6]
- fold induction [1, 14]: 1
- fold induction [2, 14]: 1
- fold induction [3, 14]: 1
- fold induction [4, 14]: 1
- fold induction [5, 14]: 1
- fold induction [6, 14]: 2.55
- fold induction [7, 14]: 1
- fold induction [8, 14]: 1
- fold induction [9, 14]: 5.1
- fold induction [10, 14]: 2.45
- fold induction [11, 14]: 9.99
- fold induction [12, 14]: 1
- fold induction [13, 14]: 1
